Results taken from patent publication US6358884B1, “Bacteriocidal and fungicidal solution containing inorganic silver complex salt and process for producing the same” (Sumitomo Metal Mining Co., Ltd., priority 1997, dated 2002).

What was measured:
[1] = tested on: Staphylococcus aureus; experiment: Bacteriocidal test for Staphylococcus aureus (sprayed filter paper, plate culture); type: cell-based
Experimental: Using the same aqueous solution containing silver as the chloro complex salt as in Example 1 above a bacteriocidal effect to Staphylococcus aureus was evaluated. As a comparison, a bacteriocidal test was conducted in the same manner by using a sterilizing ethanol as a bacteriocidal agent instead of the aqueous solution described above. The evaluation method is as shown below.
Each of the test specimen solutions was sprayed each about by 1 g as the bacteriocidal agent do so as to be substantially uniform by using a spray on 5A filter paper of 11 cm diameter and then each filter paper was left in a room with no air conditioning facility at a room temperature for 24 hours. Subsequently, a bacteria solution adjusted to a cell number of 7×10^4 N/ml by a preliminary test was dropped each by 1 ml by using a micro-pipette to each filter paper and further left in a room with no air conditioning facility at a room temperature for 24 hours.
Then, each filter paper was transferred to a sterilized cup, and vigorously shaken for 2 min by a shaker with addition of 100 ml of water. Subsequently, 1 ml of a test solution was sampled from each of sterilized cups, subjected to plate culture at 36° C. for 72 hours each with addition of ordinary agar culture medium, and the number of colonies formed was counted.
Further as a blank test, 1 ml of a solution diluted by 100 times from the bacterial solution described above (the number of cells about 7×10^4 N/ml) was sampled to a Shale without using the bacteriocidal agent, cultivated in the same manner as described above with addition of a usual agar medium, and the number of formed colonies was counted.

[2] = tested on: fungi; conditions: according to "Metal", vol. 65 (1995), No. 11; cited from earlier work
[3] = tested on: bacteria; conditions: according to "Metal", vol. 65 (1995), No. 11; cited from earlier work

Compound	Number of cells in Shale ([1]; about 1 g sprayed on filter paper, 1 ml bacteria solution 7×10^4 N/ml, 24 h, plate culture 36° C. 72 hours)	colonies in the Shale ([1]; cultivation time of 48 hours)	Number of cells per filter paper ([1]; per filter paper (1 ml of bacterial solution), plate culture 36° C. 72 hours)	Increase/decrease ratio for Number of cell ([1]; ratio to the number of cells dropped to filter paper (7×10^4 N/ml), 72 hours cultivation)	concentration showing slow releasing fungicidal effect [2]	concentration showing slow releasing bacteriocidal effect [3]
CCO [Sterilizing ethanol, ethanol]	507	colonies were already formed	5.1 × 10^4	72.9%	–	–
silver ions	–	–	–	–	≥ 0.5 mg/L	≥ 0.05 mg/L
